US6608082B1, “Treatment of erectile dysfunction using isoquinoline compound melanocortin receptor ligands” (Lion Bioscience AG, priority 1998, dated 2003)
Like-named read-outs stand apart in the source and are kept apart here.

Target: T1, MCR-1 (Homo sapiens, UniProt Q01726)
T1 construct: expressed in transfected cells; host or cells: HEK 293
Test: Melanocortin receptor binding assay, competition with 125I-HP 467, HEK 293 cells expressing hMCR-1
Settings: for % Disp. MC-1 10 μM: displacement of 125I-HP 467 at 10 μM isoquinoline compound; for % Disp. of 125I-HP 467 (first of duplicate) / % Disp. of 125I-HP 467 (second of duplicate): 10 μM isoquinoline compound; for % Disp. of 125I-HP 467 (first of duplicate): HEK 293 cells expressing MCR-1, duplicate 1; for % Disp. of 125I-HP 467 (second of duplicate): HEK 293 cells expressing MCR-1, duplicate 2; for IC50: read-out: MC-1 IC50
Protocol: All cell culture media and reagents were obtained from GibcoBRL (Gaithersburg Md.), except for COSMIC CALF SERUM (HyClone; Logan Utah).
Cells were suspended in PBS, 10% COSMIC CALF SERUM and 1 mM CaCl2. Cell suspensions were prepared at a density of 2×10^4 cells/ml for HEK 293 cells expressing hMCR-3, hMCR-4 or hMCR-5, and 1×10^5 cells/ml for HEK 293 cells expressing hMCR-1. Suspensions were placed in a water bath and allowed to warm to 37° C. for 1 hr.
Binding assays were performed in a total volume of 250 μl for HEK 293 cells. […] To each tube was added 4×10^3 HEK 293 cells expressing hMCR-3, hMCR-4 or hMCR-5, or 2×10^4 cells expressing hMCR-1. Assays were incubated for 2.5 hr at 37° C.
GF/B filter plates were prepared by soaking for at least one hour in 5 mg/ml BSA and 10 mM CaCl2. Assays were filtered using a Brandel 96-well cell harvester (Brandel Inc.; Gaithersburg, Md.). The filters were washed four times with cold 50 mM Tris, pH 7.4, the filter plates were dehydrated for 2 hr and 35 μl of MICROSCINT was added to each well. Filter plates were counted using a Packard Topcount (Packard Instrument Co.) and data analyzed using GraphPad PRISM v2.0 (GraphPad Software Inc.; San Diego Calif.) and Microsoft EXCEL v5.0a (Microsoft Corp.; Redmond Wash.).
To assay isoquinoline compounds, binding assays were performed in duplicate in a 96 well format. […] A 0.2 ml aliquot of suspended cells was added to each well to give the cell numbers indicate above, and the cells were incubated at 37° C. for 2.5 hr. Cells were harvested on GF/B filter plates as described above and counted.

[1] = competition with 125I-HP 467, HEK 293 cells expressing MCR-1
[2] = inhibition of binding of 125I-HP 467, HEK 293 cells expressing MCR-1

T1 sequence (Q01726 whole entry): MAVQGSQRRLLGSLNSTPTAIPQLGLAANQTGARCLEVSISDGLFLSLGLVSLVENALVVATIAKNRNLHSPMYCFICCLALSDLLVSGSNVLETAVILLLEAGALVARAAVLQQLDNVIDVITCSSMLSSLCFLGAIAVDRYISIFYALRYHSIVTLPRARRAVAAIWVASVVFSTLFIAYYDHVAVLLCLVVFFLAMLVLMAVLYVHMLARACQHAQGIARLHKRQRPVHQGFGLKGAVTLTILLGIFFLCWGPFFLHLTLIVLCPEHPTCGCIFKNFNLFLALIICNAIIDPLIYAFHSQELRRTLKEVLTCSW

SMILES	% Disp. MC-1 10 μM (first of duplicate)	% Disp. MC-1 10 μM (second of duplicate)	other results
NCCN1Cc2ccccc2C(CNC2CCCCC2)C1c1ccccc1 (mixture of isomers) [TRG 2405-1]	85.3%	24.1%	–
CNC(CN)CN1Cc2ccccc2C(CNC2CCCCC2)C1c1ccc2ccccc2n1 (mixture of isomers) [TRG 2405-112]	42.2%	43.2%	–
CNC(CN)CN1Cc2ccccc2C(CNC2CCCCC2)C1c1cc(C(F)(F)F)cc(C(F)(F)F)c1 (mixture of isomers) [TRG 2405-118]	47.3%	58.9%	–
CNC(CN)CN1Cc2ccccc2C(CNC2CCCCC2)C1c1cc(Cl)cc(Cl)c1 (mixture of isomers) [TRG 2405-120]	52.4%	54.3%	–
CNC(CN)CN1Cc2ccccc2C(CNC2CCCCC2)C1c1ccc(OC)c(C)c1 (mixture of isomers) [TRG 2405-136]	49%	51.8%	–
CNC(CN)CN1Cc2ccccc2C(CNC2CCCCC2)C1c1ccsc1 (mixture of isomers) [TRG 2405-143]	54.6%	50.4%	–
CNC(CN)CN1Cc2ccccc2C(CNC2CCCCC2)C1c1ccc(Br)cc1 (mixture of isomers) [TRG 2405-152]	52.8%	52.9%	–
CNC(CN)CN1Cc2ccccc2C(CNC2CCCCC2)C1c1ccc([N+](=O)[O-])c(O)c1 (mixture of isomers) [TRG 2405-160]	26.1%	41.7%	–
CNC(CN)CN1Cc2ccccc2C(CNC2CCCCC2)C1c1ccc([N+](=O)[O-])cc1 (mixture of isomers) [TRG 2405-161]	58.4%	59.1%	–
CNC(CN)CCCCN1Cc2ccccc2C(CNC2CCCCC2)C1c1ccccc1O (mixture of isomers) [TRG 2405-182]	–	–	% Disp. of 125I-HP 467 (first of duplicate): 37.5%; % Disp. of 125I-HP 467 (second of duplicate): 44.4%
CNC(CN)CCCCN1Cc2ccccc2C(CNC2CCCCC2)C1c1ccc2c(c1)OCCO2 (mixture of isomers) [TRG 2405-183]	–	–	% Disp. of 125I-HP 467 (first of duplicate): 58.9%; % Disp. of 125I-HP 467 (second of duplicate): 64.1%
CNC(CN)CCCCN1Cc2ccccc2C(CNC2CCCCC2)C1c1cc(Cl)cc(Cl)c1Cl (mixture of isomers) [TRG 2405-187]	–	–	% Disp. of 125I-HP 467 (first of duplicate): 64.6%; % Disp. of 125I-HP 467 (second of duplicate): 59.3%
CNC(CN)CCCCN1Cc2ccccc2C(CNC2CCCCC2)C1c1ccc(F)c(F)c1 (mixture of isomers) [TRG 2405-207]	–	–	% Disp. of 125I-HP 467 (first of duplicate): 65%; % Disp. of 125I-HP 467 (second of duplicate): 65.5%
CNC(CN)CCCCN1Cc2ccccc2C(CNC2CCCCC2)C1c1cccc(Oc2ccc(Cl)c(Cl)c2)c1 (mixture of isomers) [TRG 2405-213]	–	–	% Disp. of 125I-HP 467 (first of duplicate): 80%; % Disp. of 125I-HP 467 (second of duplicate): 78.1%
CNC(CN)CCCCN1Cc2ccccc2C(CNC2CCCCC2)C1c1ccc(OC)c(C)c1 (mixture of isomers) [TRG 2405-226]	–	–	% Disp. of 125I-HP 467 (first of duplicate): 79.1%; % Disp. of 125I-HP 467 (second of duplicate): 77.7%
CNC(CN)CCCCN1Cc2ccccc2C(CNC2CCCCC2)C1c1ccsc1 (mixture of isomers) [TRG 2405-233]	–	–	% Disp. of 125I-HP 467 (first of duplicate): 53.6%; % Disp. of 125I-HP 467 (second of duplicate): 42.8%
CNC(CN)CCCCN1Cc2ccccc2C(CNC2CCCCC2)C1c1ccc(OC)c2ccccc12 (mixture of isomers) [TRG 2405-248]	–	–	% Disp. of 125I-HP 467 (first of duplicate): 56.5%; % Disp. of 125I-HP 467 (second of duplicate): 67.9%
CNC(CN)CCCCN1Cc2ccccc2C(CNC2CCCCC2)C1c1ccc([N+](=O)[O-])c(O)c1 (mixture of isomers) [TRG 2405-250]	–	–	% Disp. of 125I-HP 467 (first of duplicate): 34.7%; % Disp. of 125I-HP 467 (second of duplicate): 50.5%
CNC(CN)CCCCN1Cc2ccccc2C(CNC2CCCCC2)C1c1ccc[nH]1 (mixture of isomers) [TRG 2405-265]	–	–	% Disp. of 125I-HP 467 (first of duplicate): 60.5%; % Disp. of 125I-HP 467 (second of duplicate): 54.1%
CNC(CN)CCCCN1Cc2ccccc2C(CNC2CCCCC2)C1c1ccc(S(C)(=O)=O)cc1 (mixture of isomers) [TRG 2405-267]	–	–	% Disp. of 125I-HP 467 (first of duplicate): 21.5%; % Disp. of 125I-HP 467 (second of duplicate): 8.4%
CNC(C)CNC(CN)CCCCN1Cc2ccccc2C(CNC2CCCCC2)C1c1ccc(-c2ccccc2)cc1 (mixture of isomers) [TRG 2411-15]	–	–	IC50 [1]: 730 nM
NCC(CCCCN1Cc2ccccc2C(CN)C1c1ccc(-c2ccccc2)cc1)NCc1ccccc1 (mixture of isomers) [TRG 2411-35]	–	–	IC50 [1]: 510 nM
CCCCNc1ccc(C2C(CNCCc3ccccc3)c3ccccc3CN2CCCCC(CN)NCCc2ccc(OC)cc2)cc1 (mixture of isomers) [TRG 2411-79]	–	–	IC50 [1]: 370 nM
CCCCNc1ccc(C2C(CN)c3ccccc3CN2CCCCC(CN)NCc2ccc(Cl)cc2)cc1 (mixture of isomers) [TRG 2411-108]	–	–	IC50 [1]: 160 nM

SMILES	% Disp. MC-1 10 μM (first of duplicate)	% Disp. MC-1 10 μM (second of duplicate)	other results
NCC(N)CCCN1Cc2ccccc2C(CN)C1c1ccc(-c2ccccc2)cc1 (mixture of isomers) [TRG 2411-136]	–	–	IC50 [1]: 1730 nM
CNC(C)CNC(CN)CCCN1Cc2ccccc2C(CN)C1c1ccc(-c2ccccc2)cc1 (mixture of isomers) [TRG 2411-142]	–	–	IC50 [1]: 1280 nM
CCNc1ccc(C2C(CN)c3ccccc3CN2CCCC(N)CN)cc1 (mixture of isomers) [TRG 2411-174]	–	–	IC50 [2]: 480 nM
CCNc1ccc(C2C(CN)c3ccccc3CN2CCCC(CN)NCC)cc1 (mixture of isomers) [TRG 2411-176]	–	–	IC50 [2]: 220 nM
CCNc1ccc(C2C(CN)c3ccccc3CN2CCCC(CN)NCCc2ccc3ccccc3c2)cc1 (mixture of isomers) [TRG 2411-185]	–	–	IC50 [2]: 100 nM
CNC(CN)CCCCN1Cc2ccccc2C(CNCCc2ccccc2)C1c1ccc([N+](=O)[O-])cc1 (mixture of isomers) [TRG 2413-5]	–	–	IC50 [2]: 4880 nM
NCCN1Cc2ccccc2C(CNC2CCCCC2)C1c1ccccc1O (centres unmarked) [TRG 2405-2]	42.9%	40.8%	–
NCCN1Cc2ccccc2C(CNC2CCCCC2)C1c1ccc2c(c1)OCCO2 (centres unmarked) [TRG 2405-3]	46.8%	44.2%	–
NCCN1Cc2ccccc2C(CNC2CCCCC2)C1c1cccc2ccccc12 (centres unmarked) [TRG 2405-5]	53.6%	53.6%	–
NCCN1Cc2ccccc2C(CNC2CCCCC2)C1c1ccc(F)c(F)c1F (centres unmarked) [TRG 2405-6]	45.7%	50%	–
NCCN1Cc2ccccc2C(CNC2CCCCC2)C1c1cc(Cl)cc(Cl)c1Cl (centres unmarked) [TRG 2405-7]	50.3%	54.8%	–
NCCN1Cc2ccccc2C(CNC2CCCCC2)C1c1cccc2c1OCO2 (centres unmarked) [TRG 2405-8]	0%	26.1%	–
NCCN1Cc2ccccc2C(CNC2CCCCC2)C1c1cccc(F)c1F (centres unmarked) [TRG 2405-9]	36.4%	33.4%	–
NCCN1Cc2ccccc2C(CNC2CCCCC2)C1c1ccc(Cl)cc1Cl (centres unmarked) [TRG 2405-10]	56.9%	53%	–
NCCN1Cc2ccccc2C(CNC2CCCCC2)C1c1c(F)cccc1F (centres unmarked) [TRG 2405-11]	45.1%	27%	–
NCCN1Cc2ccccc2C(CNC2CCCCC2)C1c1ccccc1Br (centres unmarked) [TRG 2405-12]	38.7%	41.8%	–
NCCN1Cc2ccccc2C(CNC2CCCCC2)C1c1c(F)cccc1Cl (centres unmarked) [TRG 2405-14]	34.2%	29.6%	–
NCCN1Cc2ccccc2C(CNC2CCCCC2)C1c1ccccc1CN (centres unmarked) [TRG 2405-15]	23.5%	52.5%	–
NCCN1Cc2ccccc2C(CNC2CCCCC2)C1c1ccccc1F (centres unmarked) [TRG 2405-16]	26.8%	40.3%	–
NCCN1Cc2ccccc2C(CNC2CCCCC2)C1c1ccco1 (centres unmarked) [TRG 2405-17]	36%	32.8%	–
NCCN1Cc2ccccc2C(CNC2CCCCC2)C1c1ncc[nH]1 (centres unmarked) [TRG 2405-18]	35.9%	34.7%	–
COc1ccccc1C1C(CNC2CCCCC2)c2ccccc2CN1CCN (centres unmarked) [TRG 2405-19]	42.2%	36.2%	–
NCCN1Cc2ccccc2C(CNC2CCCCC2)C1c1ccc2ccccc2c1 (centres unmarked) [TRG 2405-20]	59.8%	53.6%	–
NCCN1Cc2ccccc2C(CNC2CCCCC2)C1c1ccccn1 (centres unmarked) [TRG 2405-21]	47.7%	42.5%	–
